Assay results: doi:10.1101/2025.08.17.668569v1 (bioRxiv, 2025)
pEC50: −log10 of the molar value. Ends that are not written are not given here.

Assays:
Solubility in water = type: physicochemical
[1] = test system: 4T1 murine triple-negative breast cancer cells; experiment: LDH assay; type: cell-based
[2] = test system: human melanoma cell line LOX IMVI; experiment: NCI-60 screen, LOX IMVI; type: cell-based; conditions: 48 h, SRB
[3] = test system: HT-29 human colorectal cancer cells; experiment: LDH assay, HT-29 cells; type: cell-based; conditions: read-out: EC50 HT-29, Fig. 2B, 2 h, representative of N = 3
CT26 tumors = experiment: Tumor growth, CT26 murine colorectal model; type: in vivo, BALB/c mice; conditions: intratumoral NF27
SUM149 cells = experiment: LDH assay, SUM149 cells; type: cell-based, human; conditions: read-out: EC50 SUM149, Fig. 2B, 2 h, representative of N = 3
[4] = test system: Panc10.05 human pancreatic cancer cells; experiment: LDH assay, Panc10.05 cells; type: cell-based; conditions: read-out: EC50 Panc10.05, Fig. 2B, 2 h, representative of N = 3
[5] = test system: CT2A murine glioblastoma cells; experiment: LDH assay, CT2A cells; type: cell-based; conditions: read-out: EC50 CT2A, Fig. 2A, 2 h, representative of N = 3
[6] = test system: U2OS human osteosarcoma cells; experiment: LDH assay, U2OS cells; type: cell-based; conditions: read-out: EC50 U2OS, Fig. 2B, 2 h, representative of N = 3
[7] = test system: HepG2 human liver cancer cells; experiment: LDH assay, HepG2 cells; type: cell-based; conditions: read-out: EC50 HepG2, Fig. 2B, 2 h, representative of N = 3
[8] = test system: NCI-60 human tumor cell lines (59 cancer cell lines); conditions: 48 h
[9] = test system: B16-F10 murine melanoma cells; experiment: LDH assay, B16-F10 cells; type: cell-based; conditions: read-out: EC50 B16-F10, Fig. 2A, 2 h, representative of N = 3
[10] = test system: CT26 murine colon carcinoma cells; experiment: LDH assay, CT26 cells; type: cell-based; conditions: read-out: EC50 CT26, Fig. 2A, 2 h, representative of N = 3
[11] = test system: MCA205 murine fibrosarcoma cells; experiment: LDH assay, MCA205 cells; type: cell-based; conditions: read-out: EC50 MCA205, Fig. 2A, 2 h, representative of N = 3
[12] = Half-life in murine serum; type: in vitro ADME; conditions: mouse

Substance: NGRKACLNPASIVKKIIKKILKI [NF11]
- solubility in water (Solubility in water; lyophilized powder in water): formed a hard gel in water

Substance: NGRKAKKNAKKVKKIIKKIKKI-NH2 [NF22]
- oncolytic activity (LDH release) ([1]; initial screen, 4T1 cells): no detectable oncolytic activity

Substance: NGRKAKLNPASIVKKIIKKILKS-NH2 [NF27]
- GI50 [2]: 26.3 µM
- pEC50 [3]: 4.62
- pEC50 ([1]; read-out: EC50 4T1, Fig. 2A, LDH assay, 2 h, representative of N = 3): 4.92
- solubility (Solubility in water; water): ≥ 40 mM
- side effects in murine tumor models (CT26 tumors): no observable side effects
- pEC50 (SUM149 cells): 5.18
- pEC50 [4]: 4.67
- pEC50 [5]: 4.83
- pEC50 [6]: 4.94
- pEC50 [7]: 4.56
- GI50 [8]: < 10 µM
- pEC50 [9]: 4.96
- pEC50 [10]: 5.36
- pEC50 [11]: 4.98
- half-life [12]: 29 min
